From patent publication US20230079100A1, “PROCESS FOR PREPARING SOLID FORMULATIONS COMPRISING A HYDROPHOBIC COMPOUND DISPERSIBLE IN A COLD LIQUID AND RELATIVE SOLID FORMULATIONS” (NUTRILINEA S.R.L., priority 2020, published 2023)

How the values were obtained:
[1] = Visual evaluation of the degree of wettability of solid formulations poured into water; format: physicochemical; conditions: for Visual degree of wettability of the solid formulation: process of the invention, fluid bed, 1.5 g in 100 ml water at room temperature
[2] = Static contact angle of ultrapure water on sample pelleted or deposited as film (Krüss Easy Drop); format: physicochemical; conditions: 8 μL milliQ water drop, mean with standard deviation, 0 = complete wettability; for Contact angle on pellet: pelleted sample; for Contact angle on film (°): sample deposited as film
Experimental: 1.4 Contact angle measurements on hydrophobic substrates treated according to the process of the present invention (see section 1 of the experimental part).
The experimental measurements reported hereinafter relate to the study of the wettability characteristics of powdered samples before and after the process according to the present invention. The determination of the static contact angle of ultrapure water (also referred to as grade 1) was carried out on the surface of the sample pelleted or deposited in the form of film, according to methods known in the state of the art and as reported in [1] Nowak et al. Powder Technology 233 (2013) 52-64, e in [2] Bachmann and McHale, European Journal of Soil Science, 60 (2009) 420-430. The determinations were carried out using a Krüss Easy Drop instrument using drops of 8 μL of milliQ water. The behaviour of the drop in the first seconds from the deposition was analysed by recording 30-second video at 25 fps (frames per second): the contact angle considered is the equilibrium value or the final one at the end of the recording. Each sample was analysed both deposited in the form of film and pelleted and at least 3 independent contact angle determinations were carried out for each sample.
5 different types of powders were analysed; each of them was analysed both in the unmodified form thereof (as such) and after the process according to the present invention. In the case of the PEA (Palmitoylethanolamide) powder, a second batch of sample was analysed, for which only measurements on film were carried out. The results of the determinations are reported in Table IV: the mean contact angle value with standard deviation relative to the measurements on pellet and on film are reported. In case of complete wettability of the sample, an angle of 0° is reported. Overall, a greater correspondence of the wettability data measured on film with the dispersibility data observed experimentally (visual observation) is observed. This observation is in good agreement with the literature; the less representativeness of the measurements on pellets can be linked in some cases to absorption phenomena linked to the porosity of the pellet or to alterations of the surface free energy of the powder during pelletisation due to the applied pressure.

[3] = comparison process (A) dry mixing in a cube (1 kg), charging agent maltodextrin, 50%/50%
[4] = comparison process (A) dry mixing in a cube (1 kg), charging agent maltodextrin, 70%/30%
[5] = comparison process (A) dry mixing in a cube (1 kg), charging agent mannitol, 50%/50%
[6] = comparison process (A) dry mixing in a cube (1 kg), charging agent mannitol, 70%/30%
[7] = comparison process (A) dry mixing in a cube (1 kg), charging agent sugar, active/charging agent 50%/50%
[8] = comparison process (A) dry mixing in a cube (1 kg), charging agent sugar, active/charging agent 70%/30%
[9] = comparison process (B) wet granulations (1.5 kg), charging agent maltodextrin, 50%/50%
[10] = comparison process (B) wet granulations (1.5 kg), charging agent maltodextrin, 70%/30%
[11] = comparison process (B) wet granulations (1.5 kg), charging agent mannitol, 50%/50%
[12] = comparison process (B) wet granulations (1.5 kg), charging agent mannitol, 70%/30%
[13] = comparison process (B) wet granulations (1.5 kg), charging agent sugar, 50%/50%
[14] = comparison process (B) wet granulations (1.5 kg), charging agent sugar, 70%/30%
[15] = comparison process (C) wet granulation in a fluid bed granulator (1.5 kg), atomised water about 300-400 g, charging agent maltodextrin, 50%/50%
[16] = comparison process (C) wet granulation in a fluid bed granulator (1.5 kg), atomised water about 300-400 g, charging agent maltodextrin, 70%/30%
[17] = comparison process (C) wet granulation in a fluid bed granulator (1.5 kg), atomised water about 300-400 g, charging agent sugar, 50%/50%
[18] = comparison process (C) wet granulation in a fluid bed granulator (1.5 kg), atomised water about 300-400 g, charging agent sugar, 70%/30%
[19] = comparison process (C) wet granulation in a fluid bed granulator, atomised water about 300-400 g, charging agent mannitol, 50%/50%
[20] = comparison process (C) wet granulation in a fluid bed granulator, atomised water about 300-400 g, charging agent mannitol, 70%/30%
[21] = comparison process (D.a) granulation in a powder kneader (1 kg), active 90% w/w + liquid polysorbate 80 pure 10% w/w
[22] = comparison process (D.b) mixing in a cube (1 kg), active 90% w/w + powder sucrester 10% w/w
[23] = comparison process (E) wet granulation in a fluid bed granulator, active 90% + aqueous solution of polysorbate 80 at 10% w/w, 10%
[24] = solid substrate 90% w/w (900 g) + liquid polysorbate 80 pure at 100% 10% w/w (100 g)
[25] = solid substrate 93% w/w (930 g) + liquid polysorbate 80 pure at 100% 7% w/w (70 g)
[26] = solid substrate 95% w/w (950 g) + liquid polysorbate 80 pure at 100% 5% w/w (50 g)

Row | Compound | Visual degree of wettability of the active component [1, 3] | Visual degree of wettability of the active component [1, 4] | Visual degree of wettability of the active component [1, 5] | Visual degree of wettability of the active component [1, 6] | Visual degree of wettability of the active component [1, 7] | Visual degree of wettability of the active component [1, 8] | Visual degree of wettability of the active component [1, 9] | Visual degree of wettability of the active component [1, 10] | Visual degree of wettability of the active component [1, 11] | Visual degree of wettability of the active component [1, 12] | Visual degree of wettability of the active component [1, 13] | Visual degree of wettability of the active component [1, 14] | Visual degree of wettability of the active component [1, 15] | Visual degree of wettability of the active component [1, 16] | Visual degree of wettability of the active component [1, 17] | Visual degree of wettability of the active component [1, 18] | Visual degree of wettability of the active component [1, 19] | Visual degree of wettability of the active component [1, 20] | Visual degree of wettability of the active component [1, 21] | Visual degree of wettability of the active component [1, 22] | further results
1 | CCCCCCCCCCCCCCCC(=O)NCCO [PEA, Palmitoylethanolamide] | Nil | Nil | Nil | Nil | Nil | Nil | Nil/low | Nil/low | Nil/low | Nil/low | Nil/low | Nil/low | Low/Sufficient | Low | Low/Sufficient | Low | Low/Sufficient | Low | Low/Sufficient | Nil | Visual degree of wettability of the active component [1, 23]: Low/Sufficient; Visual degree of wettability of the solid formulation [1, 24]: Excellent; Visual degree of wettability of the solid formulation [1, 25]: Fair; Visual degree of wettability of the solid formulation [1, 26]: Fair; Contact angle on pellet [2]: 72 ± 4 °; Contact angle on film (°) ([2]; listed as PEA as such): 117 ± 7 °; Contact angle on film (°) ([2]; listed as PEA as such second batch): 114 ± 5 °
2 | alpha-lactalbumin | Nil | Nil | Nil | Nil | Nil | Nil | Nil/low | Nil/low | Nil/low | Nil/low | Nil/low | Nil/low | Low/Sufficient | Low | Low/Sufficient | Low | Low/Sufficient | Low | Low/Sufficient | Nil | Visual degree of wettability of the active component [1, 23]: Low/Sufficient; Visual degree of wettability of the solid formulation [1, 24]: Excellent; Visual degree of wettability of the solid formulation [1, 25]: Fair; Visual degree of wettability of the solid formulation [1, 26]: Fair; Contact angle on pellet [2]: 61 ± 6 °; Contact angle on film (°) [2]: 69 ± 3 °
